From US9861640B2, “Medicament for treatment of Alzheimer's disease” (KEMPHYS LTD., priority 2013, dated 2018)

Legend:
[1] = tested on: rat primary microglia; experiment: Clearance of 125I-labeled oligomeric Aβ1-42 by rat primary microglia; type: cell-based
Description: (§1) Primary microglia (type 1) were harvested from primary mixed glial cell cultures prepared from neonatal Wistar rat pups, as previously reported. Mouse microglial cell line MG5 and mouse glial cell line A1 were maintained as previously described. Mouse neuroblastoma cell line N1E-115 and Neuro 2a (American Type Culture Collection, Manassas, Va., USA) were maintained in Dulbecco's modified Eagle's medium (DMEM) supplemented with 10% fetal bovine serum (FBS), 20 U/ml penicillin (Invitrogen, Gaithersburg, Md., USA), and 20 μg/ml streptomycin (Invitrogen). Primary rat microglia were treated with Am80 (5 μM) and/or HX630 (5 μM) in the presence and absence of GW9662 (10 μM) for 48 h in Eagle's MEM supplemented with 10% FBS and 0.2% glucose. MG5 cells and A1 cells were treated with Am80 (5 μM) and/or HX630 (5 μM) for 48 h in DMEM containing 10% FBS. N1E-115 cells were treated with Am80 (5 μM) and/or HX630 (5 μM) for 5 days in DMEM containing 2% FBS.
^125I-Labeled oligomeric Aβ1-42 (o-Aβ1-42) was prepared as described. Cells were cultured in 24-well plates for 48 h in Eagle's MEM supplemented with 10% FBS in the presence or absence of Am80 (5 μM) and HX630 (5 μM). After the 48-h treatment, the cells were washed twice with labeling medium (DMEM containing 3% BSA) and then incubated with ^125I-labeled o-Aβ1-42 for 6 h at 37° C. Following the 6-h incubation, medium was removed from each well, and soluble radioactivity in TCA (degraded and extracellularly released peptide fragments) was determined as an index of Aβ degradation in the medium as described previously. The Aβ degradation activity may thus include both receptor-mediated phagocytic activity and extracellular protease-mediated degradation. Cells were washed three times with PBS, then lysed with 0.4 ml of 0.1 M NaOH for 30 min at 37° C., and cell-associated (including cell-incorporated) radioactivity and cell proteins were determined with an autogamma counter and the BCA Protein Assay Reagent (Pierce), respectively. We could not determine the activity of IDE-dependent degradation in this medium, because the incubation medium was replaced with labeling medium prior to incubation with ^[…].

[2] = mice [17]; cited from earlier work
[3] = tested on: IDE; settings: murine microglial cells [17]; cited from earlier work
[4] = tested on: Tg2576 mice; settings: T-maze spontaneous alternation and Nest building tests [17]; cited from earlier work
[5] = tested on: CD36; experiment: Immunoblot of CD36 in rat primary microglia; type: cell-based; settings: rat primary microglia; co-incubation of GW9662 (10 μM) with HX630 (5 μM), 48 h
Description: as §1, with “N1E-115 cells were treated with Am80 (5 μM) and/or HX630 (5 μM) for 5 days in DMEM containing 2% FBS.” left out
Rat primary microglia and mouse microglial MG5 cells (5×10^6 cells per 100-mm dish) were homogenized in RIPA buffer [10 mM Hepes-NaOH (pH 7.4) containing 150 mM NaCl, 1 mM EDTA, 1% Triton X-100, 0.5% sodium deoxycholate, 0.1% SDS, 1 mM PMSF, 1 mg/ml leupeptin. […] Bound horseradish peroxidase-labeled antibodies were then detected via chemiluminescence (an ECL kit; Pierce, Rockford, Ill., USA). Protein concentrations were determined with the BCA Protein Assay Reagent (Pierce) and Bradford Protein Assay Reagent (Pierce).

[6] = tested on: RARs; settings: at higher concentrations [49]; cited from earlier work
[7] = tested on: APP/PS1 mice; settings: cited from earlier work
[8] = tested on: nitric oxide production; settings: in vitro [72, 73]; cited from earlier work
[9] = tested on: RARβ and IL-4Rα mRNAs; settings: murine dendritic cells [66]; cited from earlier work
[10] = tested on: TNF-α; settings: in vitro, Aβ peptide-activated [72]; cited from earlier work
[11] = tested on: RXR; settings: 20 mg/kg; RXR-specific reporter transgene [48]; cited from earlier work

fucoidan
effect on the HX630- and Am80/HX630-induced increase of o-Aβ1-42 degradation activity ([1]; fucoidan 100 μg/ml): inhibited

insulin: an IDE inhibitor
effect on cell-association and degradation activities in Am80/HX630-treated cells ([1]; insulin 100 μg/ml): inhibited

CC1(C)CCC(C)(C)c2cc(C(=O)Nc3ccc(C(=O)O)cc3)ccc21 [Am580, 4-{(5,6,7,8-tetrahydro5,5,8,8-tetramethyl-2-naphthalenyl)carboxamido}benzoic acid]
crossing of the BBB [2]: crosses the BBB
IDE activity in the medium [3]: increased
cognitive deficits in Tg2576 mice [4]: ameliorated cognitive deficits

O=C(Nc1ccccc1)c1cc([N+](=O)[O-])ccc1Cl [GW9662]
effect on the HX630-induced increase in CD36 expression [5]: inhibited

C=C(c1ccc(C(=O)O)cc1)c1cc2c(cc1C)C(C)(C)CCC2(C)C [bexarotene]
cross-reactivity with RARs [6]: cross-reactivity
behavioral defects in APP/PS1 mice ([7]; mouse, in vivo): improved behavioral defects

CC1=C(/C=C/C(C)=C/C=C/C(C)=C/C(=O)O)C(C)(C)CCC1 [ATRA, all trans retinoic acid]
inhibition of nitric oxide production [8]: complete inhibition
mRNAs encoding RARβ and IL-4Rα [9]: markedly increased
memory function in APP/PS1 mice ([7]; ATRA alone [14]): improved memory function
inhibitory effect on TNF-α production [10]: 40-50%
activation of RXR in vivo [11]: activates RXR

O=C(O)CNC(=O)C(CS)Cc1ccccc1 (centres unmarked) [thiorphan]
effect on degradation activity in Am80/HX630-treated cells ([1]; thiorphan 30 μM): did not affect
